{
  "source": "patent US9462793B2",
  "about": "“Mouse carrying a knock-out mutation of the Qpct-gene” (PROBIODRUG AG, priority 2008, dated 2016)",
  "key": {"Qpct [1]": {"molecular_target": "T1, Qpct (Homo sapiens, UniProt Q16769)", "T1 sequence (Q16769 29-361)": "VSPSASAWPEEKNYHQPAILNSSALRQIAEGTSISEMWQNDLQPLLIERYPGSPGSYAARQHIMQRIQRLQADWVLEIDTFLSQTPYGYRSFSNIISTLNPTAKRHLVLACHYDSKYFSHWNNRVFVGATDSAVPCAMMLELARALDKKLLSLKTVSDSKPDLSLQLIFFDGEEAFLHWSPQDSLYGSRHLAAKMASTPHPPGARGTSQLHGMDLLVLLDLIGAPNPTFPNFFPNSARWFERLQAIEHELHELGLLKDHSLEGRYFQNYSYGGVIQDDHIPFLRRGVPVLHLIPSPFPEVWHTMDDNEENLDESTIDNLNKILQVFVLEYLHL", "assay": "Inhibition of Qpct by chelators (metal dependence)", "format": "biochemical", "details": "human Qpct and other animal Qpcts"}, "mammalian Qpct": {"test_system": "mammalian Qpct", "details": "cited from earlier work"}, "Qpct [2]": {"molecular_target": "T1, Qpct", "assay": "pH-dependence of Qpct catalyzed conversion of Glu-βNA", "format": "biochemical", "source_text": "(§1) However, in the pH-range of about 5.2-6.5, between their respective pKa-values, the two functional groups are present both in non-ionized forms, in concentrations of about 1-10% (—NH2) or 10-1% (—COOH) of total N-terminal Glu-containing peptide. As a result, over a mildly acidic pH-range species of N-terminal Glu-peptides are present which carry both groups uncharged, and, therefore, it is possible that Qpct could stabilize the intermediate of intramolecular cyclization into the pGlu-peptide, i.e. if the γ-carboxylic group is protonated, the carbonyl carbon is electrophilic enough to allow nucleophilic attack by the unprotonated α-amino group. At this pH the hydroxyl ion functions as a leaving group. These assumptions are corroborated by the pH-dependence data obtained for the Qpct catalyzed conversion of Glu-βNA. In contrast to glutamine conversion of Gln-βNA by Qpct, the pH-optimum of catalysis shifts to the acidic range around pH 6.0, i.e. the pH-range, in which substrate molecule species are simultaneously abundant carrying a protonated 7-carboxyl and unprotonated α-amino group."}, "[3]": {"assay": "pKa of α-amino group determined by titration", "format": "physicochemical", "source_text": "as §1"}, "[4]": {"details": "cited from earlier work"}},
  "data": [
    {"compound": "c1cnc2c(c1)ccc1cccnc12", "note": "[1,10-phenanthroline]", "values": [
      {"measurement": "inhibition characteristics of Qpct", "setting": "Qpct [1]", "result": "inhibition"},
      {"measurement": "Inhibition of a mammalian Qpct", "setting": "mammalian Qpct", "result": "Inhibition of a mammalian Qpct was only detected"}
    ]},
    {"compound": "Oc1cccc2cccnc12", "note": "[8-hydroxy-quinoline]", "values": [
      {"measurement": "inhibition characteristics of Qpct", "setting": "Qpct [1]", "result": "inhibition"}
    ]},
    {"compound": "O=C(O)CN(CCN(CC(=O)O)CC(=O)O)CC(=O)O", "note": "[EDTA]", "values": [
      {"measurement": "Inhibition of a mammalian Qpct", "setting": "mammalian Qpct", "result": "did not inhibit"}
    ]},
    {"compound": "N[C@@H](CCC(=O)O)C(=O)Nc1ccc2ccccc2c1", "note": "[Glu-βNA]", "values": [
      {"measurement": "kinetically determined pKa-value", "setting": "Qpct [2]", "result": "7.55+/−0.02"},
      {"measurement": "pKa of the α-amino group, determined by titration", "setting": "[3]", "result": "7.57±0.05"}
    ]},
    {"compound": "N[C@@H](CCC(=O)O)C(=O)O", "note": "[Glutamate]", "values": [
      {"measurement": "pKa-value for the α-amino moiety", "setting": "[4]", "result": "~7.5"},
      {"measurement": "pKa-value for the γ-carboxylic moiety", "setting": "[4]", "result": "about 4.2"}
    ]},
    {"compound": "O=C(O)c1cccc(C(=O)O)n1", "note": "[dipicolinic acid]", "values": [
      {"measurement": "inhibition characteristics of Qpct", "setting": "Qpct [1]", "result": "inhibition"}
    ]},
    {"compound": "reduced 6-methylpterin", "values": [
      {"measurement": "Inhibition of a mammalian Qpct", "setting": "mammalian Qpct", "result": "Inhibition of a mammalian Qpct was only detected"}
    ]}
  ]
}
